In patent US20060063198A1, “Diagnostic marker” (priority 2004, published 2006):
No end group written: not given here. *: point of attachment. For = O=C*

Columns and labels:
human neutrophils = test: Neutrophil chemotaxis in a modified Boyden chamber assay; type: cell-based; settings: synthetic peptides, fMLP as comparator
Description: Serum and plasma samples were collected from six female healthy volunteers aged 20-29, and ten ACS patients. Clinical diagnosis of the ten ACS patients indicated one unstable angina patient and 9 patients with acute myocardial infarction (AMI). The unstable angina patient arrived to the Emergency Department 30.5 hours after symptoms onset. Seven of the nine AMI patients presented to the Emergency Department within 1.5-3.5 hours after onset of chest pain. The other two AMI patients arrived 10 hours and 24 hours after symptoms onset. Blood samples were collected upon arrival of the patient, centrifuged and stored at −70° C. for up to 21 days. Serum and plasma samples were tested for neutrophil chemotactic activity using a modified Boyden chamber technique and human neutrophils as indicator cells (see, for example, Elgebaly, S. A., et al. J. Mol. Cell. Cardiol. 21:585-593, 1989; and Elgebaly, S. A., et al. Am. J. Pathol. 137:1233-1241, 1990, each of which is incorporated by reference in its entirety).
Samples were also fractionated using high performance liquid chromatography (HPLC) and a size exclusion column (1-300 kDa). The 5 kDa and lower molecular weight fractions were collected and assayed for neutrophil chemotactic activity. The standard synthetic chemoattractant fMet-Leu-Phe (f-MLP) was used as the positive control for 100% chemotactic response. Hank's Balanced Salt Solution (HBSS) was the negative control for random migration. Neutrophil migration was reported as chemotactic index of counted cells trapped within 10-micron membrane layer. The average of three readings were calculated for each filter. [formula]
(§1) A synthetic peptide having the sequence: N-formyl-[…] Synthetic peptides of sequence: MIINHNLAAINSHR (i.e., unmodified peptide 3) and of sequence: […]

neutrophils = test: Chemotactic activity retained after overnight refrigeration; type: cell-based; settings: unlike fMLP
Description: as §1

| Substance | chemotaxis of neutrophils (human neutrophils) | chemotactic activity when refrigerated overnight (neutrophils) |
| --- | --- | --- |
| MIINHNLAAINSHR [sequence 3] | promoted chemotaxis to a lesser degree | – |
| MIINHNLAAINSHRSPGADGNGGEAMPGGG [3+9] | promoted chemotaxis to a lesser degree | retained chemotactic activity |
| N-formyl-MENHK [N-formyl-7] | promote chemotaxis to a lesser degree than fMLP | – |
| N-formyl-MIINHNLAAINSHR (For-MIINHNLAAINSHR) [N-formyl-3] | promoted strong chemotaxis | retained chemotactic activity |
| N-formyl-MIINHNLAAINSHRSPGADGNGGEAMPGGGK (For-MIINHNLAAINSHRSPGADGNGGEAMPGGGK) [N-formyl-3+9+K] | promoted strong chemotaxis | retained chemotactic activity |
| N-formyl-MNTRAMNDASGR (For-MNTRAMNDASGR) [N-formyl-5] | promote chemotaxis to a lesser degree than fMLP | – |
| SPGADGNGGEAMPGGG [sequence 9] | no chemotactic activity | – |
